# According to PubChem BioAssay (NCI):
#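 Cells were grown in 96-well plates and exposed to each compound for 48 hours at five concentrations; endpoints were interpolated linearly between bracketing concentrations, or set to the highest concentration if not reached. GI50 marks 50% less growth. TGI: concentration producing complete growth inhibition.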
# Key:
# Test in all cases: NCI-60 cell line screen, 48 h
# CAKI-1 renal = test system: CAKI-1 renal
# SK-MEL-5 melanoma = test system: SK-MEL-5 melanoma
# SN12C renal = test system: SN12C renal
# SK-MEL-2 melanoma = test system: SK-MEL-2 melanoma
# A498 renal = test system: A498 renal
# BT-549 breast = test system: BT-549 breast
# HCT-15 colon = test system: HCT-15 colon
# SNB-19 CNS = test system: SNB-19 CNS
# U251 CNS = test system: U251 CNS
# HCT-116 colon = test system: HCT-116 colon
# UACC-62 melanoma = test system: UACC-62 melanoma
# EKVX NSCLC = test system: EKVX NSCLC
# SNB-75 CNS = test system: SNB-75 CNS
# MDA-MB-435 = test system: MDA-MB-435
# HL-60(TB) leukemia = test system: HL-60(TB) leukemia
# SR leukemia = test system: SR leukemia
# K-562 leukemia = test system: K-562 leukemia
# MALME-3M melanoma = test system: MALME-3M melanoma
# SF-539 CNS = test system: SF-539 CNS
# LOX IMVI melanoma = test system: LOX IMVI melanoma
# HT29 colon = test system: HT29 colon
# COLO 205 colon = test system: COLO 205 colon
# OVCAR-4 ovarian = test system: OVCAR-4 ovarian
# SW-620 colon = test system: SW-620 colon
# SK-MEL-28 melanoma = test system: SK-MEL-28 melanoma
# A549 NSCLC = test system: A549 NSCLC
# M14 melanoma = test system: M14 melanoma
# HCC-2998 colon = test system: HCC-2998 colon
# NCI/ADR-RES ovarian = test system: NCI/ADR-RES ovarian
# OVCAR-8 ovarian = test system: OVCAR-8 ovarian
# RXF 393 renal = test system: RXF 393 renal
# ACHN renal = test system: ACHN renal
# T-47D breast = test system: T-47D breast
# OVCAR-3 ovarian = test system: OVCAR-3 ovarian
# SF-295 CNS = test system: SF-295 CNS
# MCF7 breast = test system: MCF7 breast
# NCI-H522 lung = test system: NCI-H522 lung
# MOLT-4 leukemia = test system: MOLT-4 leukemia
# UO-31 renal = test system: UO-31 renal
# SK-OV-3 ovarian = test system: SK-OV-3 ovarian
# PC-3 prostate = test system: PC-3 prostate
# KM12 colon = test system: KM12 colon
# TK-10 renal = test system: TK-10 renal
# NCI-H460 lung = test system: NCI-H460 lung
# NCI-H226 lung = test system: NCI-H226 lung
# IGROV1 ovarian = test system: IGROV1 ovarian
# HOP-62 NSCLC = test system: HOP-62 NSCLC
# 786-0 renal = test system: 786-0 renal
# RPMI-8226 leukemia = test system: RPMI-8226 leukemia
# SF-268 CNS = test system: SF-268 CNS
# HOP-92 NSCLC = test system: HOP-92 NSCLC
# DU-145 prostate = test system: DU-145 prostate
# OVCAR-5 ovarian = test system: OVCAR-5 ovarian
# UACC-257 melanoma = test system: UACC-257 melanoma
# NCI-H23 lung = test system: NCI-H23 lung
# CCRF-CEM leukemia = test system: CCRF-CEM leukemia
# MDA-MB-231 breast = test system: MDA-MB-231 breast
compound,measurement,setting,value
COc1ccc2nc3cc(Cl)ccc3c(Nc3ccc(O)c(CN4CCCC4)c3)c2c1,GI50,CAKI-1 renal,2.09 µM
same,TGI,CAKI-1 renal,4.88 µM
same,GI50,SK-MEL-5 melanoma,1.82 µM
same,TGI,SK-MEL-5 melanoma,3.24 µM
same,GI50,SN12C renal,1.84 µM
same,TGI,SN12C renal,4.56 µM
same,GI50,SK-MEL-2 melanoma,1.99 µM
same,TGI,SK-MEL-2 melanoma,3.77 µM
same,GI50,A498 renal,2.89 µM
same,TGI,A498 renal,12.2 µM
same,GI50,BT-549 breast,14.5 µM
same,TGI,BT-549 breast,28.1 µM
same,GI50,HCT-15 colon,2.6 µM
same,TGI,HCT-15 colon,10.3 µM
same,GI50,SNB-19 CNS,2.99 µM
same,TGI,SNB-19 CNS,13.9 µM
same,GI50,U251 CNS,2.15 µM
same,TGI,U251 CNS,4.44 µM
same,GI50,HCT-116 colon,1.41 µM
same,TGI,HCT-116 colon,2.92 µM
same,GI50,UACC-62 melanoma,1.71 µM
same,TGI,UACC-62 melanoma,3.51 µM
same,GI50,EKVX NSCLC,3.18 µM
same,TGI,EKVX NSCLC,14.4 µM
same,GI50,SNB-75 CNS,1.99 µM
same,TGI,SNB-75 CNS,3.79 µM
same,GI50,MDA-MB-435,1.76 µM
same,TGI,MDA-MB-435,3.52 µM
same,GI50,HL-60(TB) leukemia,2.18 µM
same,TGI,HL-60(TB) leukemia,6.08 µM
same,GI50,SR leukemia,0.534 µM
same,TGI,SR leukemia,3.3 µM
same,GI50,K-562 leukemia,1.99 µM
same,TGI,K-562 leukemia,6.44 µM
same,GI50,MALME-3M melanoma,2.41 µM
same,TGI,MALME-3M melanoma,4.29 µM
same,GI50,SF-539 CNS,1.87 µM
same,TGI,SF-539 CNS,3.49 µM
same,GI50,LOX IMVI melanoma,1.73 µM
same,TGI,LOX IMVI melanoma,3.47 µM
same,GI50,HT29 colon,1.32 µM
same,TGI,HT29 colon,3.44 µM
same,GI50,COLO 205 colon,1.83 µM
same,TGI,COLO 205 colon,3.48 µM
same,GI50,OVCAR-4 ovarian,2.7 µM
same,TGI,OVCAR-4 ovarian,8.24 µM
same,GI50,SW-620 colon,1.94 µM
same,TGI,SW-620 colon,6.19 µM
same,GI50,SK-MEL-28 melanoma,1.98 µM
same,TGI,SK-MEL-28 melanoma,3.46 µM
same,GI50,A549 NSCLC,1.99 µM
same,TGI,A549 NSCLC,4.06 µM
same,GI50,M14 melanoma,1.89 µM
same,TGI,M14 melanoma,3.54 µM
same,GI50,HCC-2998 colon,1.67 µM
same,TGI,HCC-2998 colon,3.16 µM
same,GI50,NCI/ADR-RES ovarian,1.93 µM
same,TGI,NCI/ADR-RES ovarian,4.54 µM
same,GI50,OVCAR-8 ovarian,2.01 µM
same,TGI,OVCAR-8 ovarian,4.87 µM
same,GI50,RXF 393 renal,1.7 µM
same,TGI,RXF 393 renal,3.17 µM
same,GI50,ACHN renal,1.74 µM
same,TGI,ACHN renal,3.18 µM
same,GI50,T-47D breast,2.18 µM
same,TGI,T-47D breast,6.46 µM
same,GI50,OVCAR-3 ovarian,3.54 µM
same,TGI,OVCAR-3 ovarian,15 µM
same,GI50,SF-295 CNS,1.6 µM
same,TGI,SF-295 CNS,3.53 µM
same,GI50,MCF7 breast,1.32 µM
same,TGI,MCF7 breast,2.87 µM
same,GI50,NCI-H522 lung,1.67 µM
same,TGI,NCI-H522 lung,3.79 µM
same,GI50,MOLT-4 leukemia,2.43 µM
same,TGI,MOLT-4 leukemia,11.4 µM
same,GI50,UO-31 renal,1.83 µM
same,TGI,UO-31 renal,3.7 µM
same,GI50,SK-OV-3 ovarian,6.21 µM
same,TGI,SK-OV-3 ovarian,19 µM
same,GI50,PC-3 prostate,3.28 µM
same,TGI,PC-3 prostate,11 µM
same,GI50,KM12 colon,3.13 µM
same,TGI,KM12 colon,> 100 µM
same,GI50,TK-10 renal,2.29 µM
same,TGI,TK-10 renal,4.75 µM
same,GI50,NCI-H460 lung,2.46 µM
same,TGI,NCI-H460 lung,6.15 µM
same,GI50,NCI-H226 lung,1.84 µM
same,TGI,NCI-H226 lung,3.75 µM
same,GI50,IGROV1 ovarian,2.6 µM
same,TGI,IGROV1 ovarian,6.67 µM
same,GI50,HOP-62 NSCLC,2.14 µM
same,TGI,HOP-62 NSCLC,5.34 µM
same,GI50,786-0 renal,1.83 µM
same,TGI,786-0 renal,3.5 µM
same,GI50,RPMI-8226 leukemia,2.55 µM
same,TGI,RPMI-8226 leukemia,6.41 µM
same,GI50,SF-268 CNS,3.79 µM
same,TGI,SF-268 CNS,> 100 µM
same,GI50,HOP-92 NSCLC,3.92 µM
same,TGI,HOP-92 NSCLC,16 µM
same,GI50,DU-145 prostate,2.16 µM
same,TGI,DU-145 prostate,4.77 µM
same,GI50,OVCAR-5 ovarian,2.89 µM
same,TGI,OVCAR-5 ovarian,7.62 µM
same,GI50,UACC-257 melanoma,2.15 µM
same,TGI,UACC-257 melanoma,3.83 µM
same,GI50,NCI-H23 lung,2.22 µM
same,TGI,NCI-H23 lung,7.08 µM
same,GI50,CCRF-CEM leukemia,3.06 µM
same,TGI,CCRF-CEM leukemia,14.6 µM
same,GI50,MDA-MB-231 breast,1.66 µM
same,TGI,MDA-MB-231 breast,3.84 µM
